Data on two molecules can be found in patent US11597708B2, “Inhibitors of heat shock factors and uses thereof” (HSF Pharmaceuticals SA, priority 2016, dated 2023).

Data set [1] has as its system hsp70b promoter-driven fluc gene. In words: Corroborating experiment in a cell line containing an hsp70b promoter-driven fluc gene. Particulars: data not shown. Format: cell-based. As to the method: The compounds of the afore-mentioned biased sublibrary were screened in cell line Z74 at 12.5 and 25 μM concentrations. Typically, Z74 cultures in 96-well plates were exposed to compound or vehicle for 2 h, heat-treated at 43.0° C. for 30 min, and incubated further for 6 h at 37° C. to allow for accumulation of the luciferases. RLuc and FLuc activities were determined, typically using the Dual-Glo® Luciferase Assay System (Promega Corp., Madison, Wis.), and reading luciferase light counts in a Wallac Microbeta Trilux-1450 Luminometer (PerkinElmer, Waltham, Mass.). IHSF 001 was one of two library compounds that inhibited RLuc expression but not FLuc expression in heat-treated Z74 cells (Table 1; FIG. 2A). Therefore, IHSF 001 is an inhibitor of HSF1 function that specifically acts through the HSF1 DNA-binding domain. […] A corroborating experiment utilized a cell line containing an hsp70b promoter-driven fluc gene. […] IHSF 001 is (E)-ethyl 4-oxo-4-(thiazol-2-ylamino)but-2-enoate. The compound can be obtained from commercial sources (e.g., AKE-PB-90340538, Akos).

In data set [2] the test system is HeLa cells. In words: Trypan Blue staining, live and necrotic cells. It counts as cell-based, human. How it is done:
(§1) FIG. 6. (A) HeLa cell cultures were mock-exposed (−) or exposed to the indicated concentrations of compound 115 for 24 (left panel) or 96 (right panel) hours. Cell viability of total cultures, floating cells and attached cells was assayed using an Alamar Blue assay. (B) HeLa cell cultures were mock-exposed (−) or exposed to the indicated concentrations of compound 115 for 15-96 hours. Trypan Blue dye exclusion was employed to determine numbers of live cells (left panel) and relative levels of necrotic cells (right panel). (C) HeLa cell cultures were mock-exposed (−) or exposed to the indicated concentrations of compound 115 for 6 and 24 h. Shown are relative levels of early apoptotic cells (annexin-positive, 7 aminoactinomycin D-negative). (D) Flow cytometric analysis of DNA of HeLa cell cultures mock-exposed (−) or exposed to the indicated concentrations of compound 115 for 6, 15 and 24 hours. Relative levels of apoptotic cells are indicated.
(§2) Further studies were aimed at finding out whether IHSF-exposed cancer cells were only growth-arrested or were actually killed and, if they were killed, by what mechanism. […] The viability signal (in whole cultures and, more dramatically, when only attached cells were analyzed) decreased as a function of IHSF concentration. […] Stained (necrotic) and unstained (live) cells were counted (FIG. 6B). […]

Data set [3] relates to HeLa cells. As to the kind of experiment: Flow cytometric analysis of DNA (sub-G0/G1 fraction). Format: cell-based, human. Particulars: 12.5 or 25 μM for up to 24 h. As to the method:
as §1, §2
(In flow cytometry, cells or beads pass a laser one at a time.)

A short description of data set [4]: Dissolution in aqueous Kleptose HPB stock solution. Format: physicochemical. Particulars: 85 mg in 8.5 ml of 357 mg/ml Kleptose HPB stock solution, overnight, slow agitation, room temperature. As to the method: 1. Prepare 15 ml of a 357 mg/ml stock solution of Kleptose HPB (Roquette Pharma) in water (of which the amount not used under 2 is reserved for vehicle controls).
2. Dissolve 85 mg of compound 0115 in 8.5 ml of Kleptose stock solution by incubating the solution overnight with slow agitation (at room temperature). Over 90% of the drug substance will be dissolved after this incubation.

For data set [5], the system named is MM.1S. In words: Alamar Blue viability assay. Format: cell-based, human. How it is done:
FIG. 5. (A) Viability of HeLa cell cultures mock-exposed (−) or exposed to the indicated concentrations of compounds 001, 058 or 115. (B) Viability of MM.1S cells mock-exposed (−) or exposed to the indicated concentrations of compound 115. Viability was assayed after 96 hours of exposure using an Alamar Blue assay.
Cultures of HeLa cells were exposed for 96 hours to different concentrations of IHSF 001, 058 and 115, and viability was assessed using an Alamar Blue assay. It is noted that this standard assay examines attached cells only. This subject will be discussed in more detail below. […] The relative cytotoxicity of the compounds appears to parallel their respective activities as inhibitors of HSF1 function (inhibition of RLuc expression in Z74 cells). We next examined the viability of different human cancer cell lines subsequent to a 96-hour exposure to compound 115 (Table 3). HSF1 was reported as being required for optimal p21 expression and for p53-mediated cell cycle arrest in response to genotoxins. Logan, I. R. et al. (2009) Nucleic Acids Res. 37: 2962-2971. […] Cell lines of different p53 status were included in the experiments in order to find out whether sensitivity to IHSF 115 was related to p53 status. […] No effect of p53 status could be discovered. It is noted that a number of additional HSF inhibitors of the present disclosure were tested and found to effectively reduce the viability of human cancer cells.
(The colour change of resazurin is a common sign of viable cells or microbes.)

Each structure is given as a SMILES string.

Consider `CCOC(=O)/C=C/C(=O)Nc1nccs1` [IHSF 001, (E)-ethyl 4-oxo-4-(thiazol-2-ylamino)but-2-enoate], for which the “FLuc expression in hsp70b promoter-driven fluc line” value in data set [1] is “inhibit FLuc expression”.

The EC50 is the concentration needed to bring the measured effect to its halfway point. A low value points to a more potent agent. As to `CN(C(=O)/C=C/C1=NCCCO1)c1ncc(-c2cccnc2)s1` [IHSF 115, (E)-3-(5,6-Dihydro-4H-[1,3]oxazin-2-yl)-N-methyl-N-(5-pyridin-3-yl-thiazol-2-yl)-acrylamide], the “necrotic HeLa cells (Trypan Blue)” value in data set [2] (15-hour exposure to 3.125 μM) is “increase in necrotic cells was already apparent”. Further, in data set [2] (exposure for 15, 24 and 96 hours), the “numbers of live and necrotic HeLa cells (Trypan Blue)” value is “caused numbers of live cells to decrease and numbers of necrotic cells to increase in a concentration- and time-dependent fashion”. Further, the “sub-G0/G1 fractions (% of cells included)” value in data set [3] was at most 6%. For the same molecule, the drug substance dissolved result in data set [4] is given as “Over 90%”. The “concentration at which complete loss of viability of MM.1S cells occurred” value in data set [5] (96 hours exposure, Alamar Blue) was determined as 6.25 µM. Besides, a half-maximal effect in data set [5] (Homo sapiens, MM1.S, MM.1S, Multiple myeloma, P53 Wt, 96-hour exposure) (EC50) was put at 1.7 µM. Further, the “concentration at which complete loss of viability of MM.1S cells occurred, in some experiments” value in data set [5] (in some experiments already) was found to be 3.125 µM.
